Publication PMC2810227, “3-O-Methylfunicone, a Selective Inhibitor of Mammalian Y-Family DNA Polymerases from an Australian Sea Salt Fungal Strain” (Marine Drugs, 2009)

Molecular target: T1, human pol γ (Homo sapiens, UniProt P54098)
T1 construct: His; made in house
Experiment: DNA polymerase assay, pol γ
Format: biochemical
Settings: 100 μM
Description: Pol α was purified from calf thymus by immuno-affinity column chromatography, as described by Tamai et al.. Recombinant rat pol β was purified from E. coli JMpβ5, as described by Date et al.. The human pol γ catalytic gene was cloned into pFastBac. Histidine-tagged enzyme was expressed using the BAC-TO-BAC HT Baculovirus Expression System according to the supplier’s manual (Life Technologies, MD, USA) and purified using ProBoundresin (Invitrogen Japan, Tokyo, Japan). Human pols δ and ɛ were purified by nuclear fractionation of human peripheral blood cancer cells (Molt-4) using the second subunit of pols δ and ɛ-conjugated affinity column chromatography, respectively. A truncated form of human pol η (residues 1–511) tagged with His6 at its C-terminal was expressed in E. coli cells and purified as described by Kusumoto et al.. A recombinant mouse pol ι tagged with His6 at its C-terminal was expressed and purified by Ni-NTA column chromatography as described elsewhere (Masutani et al., in preparation). […]
The compounds were dissolved in distilled dimethyl sulfoxide (DMSO) at various concentrations and sonicated for 30 sec. […] Activity without the inhibitor was considered 100%, and the remaining activity at each concentration of the inhibitor was determined relative to this value. […]

T1 sequence (P54098 whole entry): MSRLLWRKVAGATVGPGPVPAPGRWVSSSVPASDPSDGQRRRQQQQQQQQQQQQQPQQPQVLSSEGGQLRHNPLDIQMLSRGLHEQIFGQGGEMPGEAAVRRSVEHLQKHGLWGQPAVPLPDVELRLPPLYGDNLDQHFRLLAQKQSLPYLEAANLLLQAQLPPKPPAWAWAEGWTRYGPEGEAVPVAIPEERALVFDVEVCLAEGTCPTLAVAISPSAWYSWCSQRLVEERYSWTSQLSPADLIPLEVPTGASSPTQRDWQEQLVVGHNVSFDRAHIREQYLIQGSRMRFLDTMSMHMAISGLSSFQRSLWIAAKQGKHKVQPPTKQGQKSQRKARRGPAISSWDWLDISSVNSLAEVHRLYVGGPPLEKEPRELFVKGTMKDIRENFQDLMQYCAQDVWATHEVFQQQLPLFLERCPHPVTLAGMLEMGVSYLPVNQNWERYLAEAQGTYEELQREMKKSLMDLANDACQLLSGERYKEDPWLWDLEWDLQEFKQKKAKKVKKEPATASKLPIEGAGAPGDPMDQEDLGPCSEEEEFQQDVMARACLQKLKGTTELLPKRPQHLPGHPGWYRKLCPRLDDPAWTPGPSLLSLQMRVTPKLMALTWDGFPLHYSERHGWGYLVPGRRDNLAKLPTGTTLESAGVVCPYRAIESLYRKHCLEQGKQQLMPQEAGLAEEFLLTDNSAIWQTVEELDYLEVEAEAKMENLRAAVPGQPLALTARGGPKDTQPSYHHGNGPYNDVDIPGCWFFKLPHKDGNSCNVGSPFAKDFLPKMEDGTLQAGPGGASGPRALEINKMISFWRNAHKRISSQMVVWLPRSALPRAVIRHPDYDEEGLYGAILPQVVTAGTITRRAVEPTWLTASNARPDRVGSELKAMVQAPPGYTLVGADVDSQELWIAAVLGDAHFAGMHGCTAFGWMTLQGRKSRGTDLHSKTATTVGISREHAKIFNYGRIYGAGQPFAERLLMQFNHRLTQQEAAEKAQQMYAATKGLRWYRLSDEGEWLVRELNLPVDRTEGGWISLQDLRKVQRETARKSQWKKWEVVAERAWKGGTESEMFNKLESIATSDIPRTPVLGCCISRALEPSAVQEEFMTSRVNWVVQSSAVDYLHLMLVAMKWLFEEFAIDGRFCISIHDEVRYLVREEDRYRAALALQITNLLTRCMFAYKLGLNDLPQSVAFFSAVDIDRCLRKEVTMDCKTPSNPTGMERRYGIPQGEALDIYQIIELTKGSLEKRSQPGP

C/C=C/c1occ(C(=O)c2c(OC)cc(OC)cc2C(=O)OC)c(=O)c1OC [compound 1, 3-O-methylfunicone]
effect on pol γ activity: hardly influenced
